How the values were obtained:
[1] = Selectivity index, ratio of IC50 for rat L6 cells to IC50 for Trypanosoma brucei rhodesiense STIB 900 bloodstream forms; assay type: toxicity; conditions: read-out: Ratio IC50
[2] = tested on: L6; assay: Cytotoxicity against rat L6 cells after 72 hrs by alamar blue staining based fluorescence assay; assay type: cell-based; conditions: L6, 72 h
[3] = tested on: Trypanosoma brucei rhodesiense; assay: Antitrypanosomal activity against Trypanosoma brucei rhodesiense STIB 900 bloodstream forms after 72 hrs by alamar blue staining based fluorescence assay; assay type: functional, organism-based; conditions: STIB 900, 72 h

SMILES	selectivity ratio [1]	IC50 [2]	IC50 [3]
C=C1C(=O)O[C@@H]2/C=C(/C)[C@@H]3C/C=C(/C[C@@H](OC(=O)/C(=C/CO)CO)[C@@H]12)C[C@@](O)(C(C)C)C(=O)O3	4.1	3.8 µM	0.9 µM
C=C1C(=O)O[C@@H]2/C=C(/C)[C@@H](OC(C)=O)C/C=C(\C)C[C@@H](OC(=O)c3ccoc3)[C@@H]12	20.5	2.1 µM	0.1 µM
C=C1C(=O)O[C@@H]2/C=C(/C)[C@@H](O)C[C@H]3O[C@]3(C)C[C@@H](OC(=O)/C(=C/COC(=O)C(O)C(C)C)CO)[C@@H]12 (stereo not given in full)	15.8	14.4 µM	0.91 µM
C=C1C(=O)O[C@@H]2/C=C(/C)[C@@H](OC(C)=O)C[C@H]3O[C@]3(C)C[C@@H](OC(=O)/C(=C/CO)CO)[C@@H]12	15.8	14.6 µM	0.92 µM
C=C1C(=O)O[C@@H]2/C=C(/C)[C@@H](OC(C)=O)C/C=C(\C)C[C@@H](OC(=O)C3=CC(O)OC3)[C@@H]12 (stereo not given in full)	11.5	4.1 µM	0.35 µM
C=C1C(=O)O[C@@H]2/C=C(/C)[C@@H](OC(C)=O)C/C=C(\C)C[C@@H](OC(=O)/C(=C\CO)CO)[C@@H]12	31.1	54.6 µM	1.7 µM
C=C1C(=O)O[C@@H]2/C=C(\C)[C@@H](O)C/C=C(\C)C[C@@H](OC(=O)/C(C)=C/CO)[C@@H]12	9.6	51.7 µM	5.4 µM
C=C1C(=O)O[C@@H]2/C=C(/C)[C@@H](OC(C)=O)C/C=C(\C)C[C@@H](OC(=O)/C(=C/CO)CO)[C@@H]12	6.9	7.8 µM	1.1 µM
C=C1C(=O)O[C@H]2[C@H]1[C@H](OC(=O)/C(=C/CO)CO)CC(=C)[C@@H]1CC(=O)C(C)[C@H]21 (stereo not given in full)	19.2	12.3 µM	0.6 µM
C=C1C[C@@H](OC(=O)/C(=C/CO)CO)[C@H]2C(=C)C(=O)O[C@@H]2[C@H]2C(C)=C[C@@H](O)[C@@H]12	5.9	42.8 µM	7.3 µM
C=C1C(=O)O[C@@H]2/C=C(/C)[C@@H](OC(=O)C(O)C(C)C)C/C=C(\C)C[C@@H](OC(=O)/C(=C/CO)CO)[C@@H]12 (stereo not given in full)	13.4	11 µM	0.82 µM
C=C1C(=O)O[C@@H]2/C=C(/C)[C@@H](OC(C)=O)C/C=C(\C)C[C@@H](OC(=O)/C(C)=C/CO)[C@@H]12	4.6	7.94 µM	1.7 µM
COc1cc(CCCO)cc(O)c1OC	15.2	149 µM	9.8 µM
C=C1C(=O)O[C@@H]2/C=C(\C)[C@@H](O)C/C=C(\C)C[C@@H](OC(=O)/C(=C/COC(=O)C(O)C(C)C)CO)[C@@H]12 (stereo not given in full)	13	34.1 µM	2.6 µM
C=C1C(=O)O[C@@H]2/C=C(\C)[C@@H](O)C/C=C(\C)C[C@@H](OC(=O)/C(=C/COC(=O)C(O)C(C)CC)CO)[C@@H]12 (stereo not given in full)	10.5	42.3 µM	4 µM
C=C1C(=O)O[C@@H]2/C=C(/C)[C@@H](OC(=O)C(O)C(C)C)C/C=C(\C)C[C@@H](OC(=O)c3ccoc3)[C@@H]12 (stereo not given in full)	29.7	3.9 µM	0.13 µM
C=C1C(=O)O[C@H]2[C@H]1[C@H](OC(=O)/C(=C/COC(=O)C(O)C(C)C)CO)C[C@]1(C)[C@@H]2[C@H](C)C(=O)C[C@H]1O (stereo not given in full)	14.6	39.7 µM	2.7 µM
C=C1C(=O)O[C@@H]2C3O[C@]3(C)CC/C=C(\C)CC[C@@H]12 (stereo not given in full)	18.6	7.2 µM	0.39 µM
C=C1C(=O)O[C@@H]2/C=C(\C)CC/C=C(\C)C[C@@H](OC(=O)/C(=C/CO)CO)[C@@H]12	11.1	15.5 µM	1.2 to 1.4 µM
COc1ccc(-c2cc(=O)c3c(O)c(OC)c(O)cc3o2)cc1 [PECTOLINARIGENIN]	3.3	20.2 µM	6.1 µM

From ChEMBL document CHEMBL4130586, “Antiprotozoal Sesquiterpene Lactones and Other Constituents from Tarchonanthus camphoratus and Schkuhria pinnata” (J Nat Prod, 2018)
